Literature values as cited in US20100210792A1, “DRUG DELIVERY” (priority 2006, published 2010).

Details: Table 1 drug list

Compound | Hydrophobic
Cc1nc2n(c(=O)c1CCN1CCC(c3noc4cc(F)ccc34)CC1)CCCC2 [Risperidone, 4-[2-[4-(6-fluorobenzo[d]isoxazol-3-yl)-1-piperidyl]ethyl]-3-methyl-2,6-diazabicyclo[4.4.0]deca-1,3-dien-5-one] | YES
CC[C@H]1OC(=O)[C@H](C)[C@@H](O[C@H]2C[C@@](C)(OC)[C@@H](O)[C@H](C)O2)[C@H](C)[C@@H](O[C@@H]2O[C@H](C)C[C@H](N(C)C)[C@H]2O)[C@](C)(OC)C[C@@H](C)C(=O)[C@H](C)[C@@H](O)[C@]1(C)O [Clarithromycin] | YES
Cc1c(OCC(F)(F)F)ccnc1C[S+]([O-])c1nc2ccccc2[nH]1 (centres unmarked) [Lansoprazole] | YES
CC(C)c1nc(N(C)S(C)(=O)=O)nc(-c2ccc(F)cc2)c1/C=C/[C@@H](O)C[C@@H](O)CC(=O)O [Rosuvastatin] | YES
OCCOCCN1CCN(C2=Nc3ccccc3Sc3ccccc32)CC1 [Quetiapine] | YES

Second part, the compound after the results:

Hydrophobic | Compound
YES | CN[C@H]1CC[C@@H](c2ccc(Cl)c(Cl)c2)c2ccccc21 [Sertradine]
YES | COc1ccc2nc([S@@+]([O-])Cc3ncc(C)c(OC)c3C)[nH]c2c1 [Esomeprazole]
YES | CC(C)c1c(C(=O)Nc2ccccc2)c(-c2ccccc2)c(-c2ccc(F)cc2)n1CC[C@@H](O)C[C@@H](O)CC(=O)O [Atorvastatin]
